Test results from publication PMC11579512, “Deoxybouvardin-glucoside induces apoptosis in non-small cell lung cancer cells by targeting EGFR/MET and AKT signaling pathway” (EXCLI Journal, 2024).
Read-outs that look alike come from different tables or passages of the source.

Key:
HCC827GR cells [1] = assay: Soft agar anchorage-independent growth, HCC827GR; type: cell-based, human; details: 2 weeks; for colony number, Control % / colony size, Control %: GEF 1 μM, SAV 2 nM or both
Experimental: (§1) The anchorage-independent cell growth assay was performed in 6-well plates with dual agar layers containing 0.6 % agar (lower layer) and 0.3 % agar (upper layer) supplemented with BME, 2 mM L-glutamine, 5 μg/ml gentamicin, and 10 % FBS. After 2 weeks of incubation, the number of colonies was assessed using a microscope (Leica, Wetzlar, Germany), and the mean colony area was analyzed using i-Solution ^TM software (Vancouver, BC, Canada).

HCC827GR cells [2] = details: GEF 1 μM, SAV 2 nM or both
Experimental: (§2) All culture media were supplemented with FBS (10 %) and P/S (1 %), and the cells were grown at 37 °C in 5 % CO2.
(§3) The cells were treated with MTT and incubated for 2 h. The supernatants were removed, and the remaining formazan crystals were dissolved in DMSO before absorbance measurement at 570 nm using a Multiscan GO spectrophotometer (Thermo Fisher Scientific, Vantaa, Finland).

HaCaT cells = details: GEF 1 μM, SAV 2 nM or both
Experimental: as §2, §3

caspase-3 = assay: Immunoblot caspase-3 with NAC pretreatment, HCC827 and HCC827GR cells; type: cell-based, human; details: for caspase3 protein/actin / caspase3 protein Ratio: NAC 4 mM; for caspase3 protein Ratio: control = 1.00
Experimental: (§4) HaCaT cells were grown in DMEM, whereas HCC827 and HCC827GR cells were grown in RPMI 1640. All culture media were supplemented with FBS (10 %) and P/S (1 %), and the cells were grown at 37 °C in 5 % CO2.
(§5) Cells were lysed in RIPA buffer, and protein concentration was determined using a Bio-Rad DC Protein Assay kit (Bio-Rad, Hercules, CA, USA). Protein samples from the cell lysates were resolved by sodium dodecyl sulfate-polyacrylamide gel electrophoresis and then transferred onto polyvinylidene fluoride membranes. The membranes were blocked with 3 % or 5 % skim milk and then incubated at 4 °C overnight with the indicated primary antibodies, followed by the corresponding horseradish peroxidase-conjugated secondary antibodies at RT for 2 h. Protein bands were visualized using western blotting luminol reagent solution and ImageQuant LAS 500 (GE Healthcare, Uppsala, Sweden). The density of the bands was quantified using ImageJ software (NIH, Bethesda, MD, USA).

p-EGFR = assay: Immunoblot p-EGFR with NAC pretreatment, HCC827 and HCC827GR cells; type: cell-based, human; details: NAC 4 mM; for p-EGFR protein Ratio: control = 1.00
Experimental: as §4, §5

p-MET = assay: Immunoblot p-MET with NAC pretreatment, HCC827 and HCC827GR cells; type: cell-based, human; details: NAC 4 mM; for p-MET protein Ratio: control = 1.00
Experimental: as §4, §5

p-AKT = assay: Immunoblot p-AKT with NAC pretreatment, HCC827 and HCC827GR cells; type: cell-based, human; details: NAC 4 mM; for p-AKT protein Ratio: control = 1.00
Experimental: as §4, §5

PARP = assay: Immunoblot PARP with NAC pretreatment, HCC827 and HCC827GR cells; type: cell-based, human; details: for PARP protein/actin / PARP protein Ratio: NAC 4 mM; for PARP protein Ratio: control = 1.00
Experimental: as §4, §5

HCC827GR cells [3] = assay: MTT viability after NAC pretreatment, HCC827GR; type: cell-based, human; details: HCC827GR, NAC 4 mM
Experimental: as §2, §3

HCC827 cells [4] = assay: MTT viability after NAC pretreatment, HCC827; type: cell-based, human; details: HCC827, NAC 4 mM
Experimental: as §2, §3

HCC827 cells [5] = assay: Soft agar anchorage-independent growth, HCC827; type: cell-based, human; details: 2 weeks; GEF 1 μM, SAV 2 nM or both
Experimental: as §1

HCC827 cells [6] = details: GEF 1 μM, SAV 2 nM or both
Experimental: as §2, §3

HCC827 cells [7] = assay: MTT viability with Z-VAD-FMK, HCC827; type: cell-based, human
Experimental: as §2, §3

HCC827GR cells [8] = assay: MTT viability with Z-VAD-FMK, HCC827GR; type: cell-based, human; details: Z-VAD-FMK 12 µM, 3 h; DBG 48 h
Experimental: as §2, §3

[9] = NAC 4 mM pretreatment, then DBG

COc1cc2ncnc(Nc3ccc(F)c(Cl)c3)c2cc1OCCCN1CCOCC1 [GEF, gefitinib, reference compound]
colony number, Control % (HCC827GR cells [1]): 84.14% | colony size, Control % (HCC827GR cells [1]): 98.13% | cell viability (HCC827GR cells [2]; 24 h, mean, n=3): 102.64% | cell viability (HCC827GR cells [2]; 24 h, replicate 1): 103.39% | cell viability (HCC827GR cells [2]; 24 h, replicate 2): 100.47% | cell viability (HCC827GR cells [2]; 24 h, replicate 3): 104.06% | cell viability (HCC827GR cells [2]; 48 h, mean, n=3): 96.35% | cell viability (HCC827GR cells [2]; 48 h, replicate 1): 98.10% | cell viability (HCC827GR cells [2]; 48 h, replicate 2): 91.57% | cell viability (HCC827GR cells [2]; 48 h, replicate 3): 99.38% | cell viability (HaCaT cells; 24 h, mean, n=3): 65.33% | cell viability (HaCaT cells; 24 h, replicate 1): 65.07% | cell viability (HaCaT cells; 24 h, replicate 2): 64.14% | cell viability (HaCaT cells; 24 h, replicate 3): 66.80% | cell viability (HaCaT cells; 48 h, mean, n=3): 39.87% | cell viability (HaCaT cells; 48 h, replicate 1): 39.75% | cell viability (HaCaT cells; 48 h, replicate 2): 40.25% | cell viability (HaCaT cells; 48 h, replicate 3): 39.62%

CC(=O)N[C@@H](CS)C(=O)O [NAC, N-acetyl-L-cysteine, reference compound]
caspase3 protein/actin (caspase-3; HCC827, control 0.39): 0.48 | caspase3 protein Ratio (caspase-3; HCC827): 1.23 | caspase3 protein/actin (caspase-3; HCC827GR, control 0.59): 0.90 | caspase3 protein Ratio (caspase-3; HCC827GR): 1.54 | cleaved caspase-3 level (caspase-3; [9]): significantly prevented the increase | p-EGFR protein/actin (p-EGFR; HCC827, control 0.90): 0.68 | p-EGFR protein Ratio (p-EGFR; HCC827): 0.76 | p-EGFR protein/actin (p-EGFR; HCC827GR, control 0.93): 0.93 | p-EGFR protein Ratio (p-EGFR; HCC827GR): 1.00 | p-MET protein/actin (p-MET; HCC827, control 1.17): 0.89 | p-MET protein Ratio (p-MET; HCC827): 0.76 | p-MET protein/actin (p-MET; HCC827GR, control 1.14): 1.03 | p-MET protein Ratio (p-MET; HCC827GR): 0.91 | p-AKT protein/actin (p-AKT; HCC827, control 1.00): 0.79 | p-AKT protein Ratio (p-AKT; HCC827): 0.79 | p-AKT protein/actin (p-AKT; HCC827GR, control 1.04): 0.95 | p-AKT protein Ratio (p-AKT; HCC827GR): 0.92 | PARP protein/actin (PARP; HCC827, control 0.96): 1.00 | PARP protein Ratio (PARP; HCC827): 1.04 | PARP protein/actin (PARP; HCC827GR, control 0.99): 1.32 | PARP protein Ratio (PARP; HCC827GR): 1.33 | cleaved PARP level (PARP; [9]): significantly prevented the increase | cell viability (relative to untreated = 100.00) (HCC827GR cells [3]; mean of 3): 99.78 | cell viability (relative to untreated = 100.00) (HCC827GR cells [3]; replicate 1): 99.39 | cell viability (relative to untreated = 100.00) (HCC827GR cells [3]; replicate 2): 100.59 | cell viability (relative to untreated = 100.00) (HCC827GR cells [3]; replicate 3): 99.36 | cell viability (relative to untreated = 100.00) (HCC827 cells [4]; mean of 3): 104.34 | cell viability (relative to untreated = 100.00) (HCC827 cells [4]; replicate 1): 105.47 | cell viability (relative to untreated = 100.00) (HCC827 cells [4]; replicate 2): 103.68 | cell viability (relative to untreated = 100.00) (HCC827 cells [4]; replicate 3): 103.89

C[C@@H](c1ccc2nccn2c1)n1nnc2ncc(-c3cnn(C)c3)nc21 [SAV, savolitinib, reference compound]
colony formation, in words (HCC827 cells [5]): did not significantly alter the colony size and count | colony size, Control % (HCC827 cells [5]): 94.26% | colony number, Control % (HCC827GR cells [1]): 90.34% | colony size, Control % (HCC827GR cells [1]): 125.91% | colony formation, in words (HCC827GR cells [1]; SAV 2 nM): did not significantly alter the colony size and count | cell viability (HCC827 cells [6]; 24 h, mean, n=3): 95.55% | cell viability (HCC827 cells [6]; 24 h, replicate 1): 94.16% | cell viability (HCC827 cells [6]; 24 h, replicate 2): 96.61% | cell viability (HCC827 cells [6]; 24 h, replicate 3): 95.89% | cell viability (HCC827 cells [6]; 48 h, mean, n=3): 94.28% | cell viability (HCC827 cells [6]; 48 h, replicate 1): 94.71% | cell viability (HCC827 cells [6]; 48 h, replicate 2): 94.13% | cell viability (HCC827 cells [6]; 48 h, replicate 3): 94.00% | cell viability (HCC827GR cells [2]; 24 h, mean, n=3): 97.44% | cell viability (HCC827GR cells [2]; 24 h, replicate 1): 102.35% | cell viability (HCC827GR cells [2]; 24 h, replicate 2): 94.96% | cell viability (HCC827GR cells [2]; 24 h, replicate 3): 95.02% | cell viability (HCC827GR cells [2]; 48 h, mean, n=3): 94.70% | cell viability (HCC827GR cells [2]; 48 h, replicate 1): 91.23% | cell viability (HCC827GR cells [2]; 48 h, replicate 2): 97.86% | cell viability (HCC827GR cells [2]; 48 h, replicate 3): 95.02% | cell viability (HaCaT cells; 24 h, mean, n=3): 98.31% | cell viability (HaCaT cells; 24 h, replicate 1): 97.97% | cell viability (HaCaT cells; 24 h, replicate 2): 99.14% | cell viability (HaCaT cells; 24 h, replicate 3): 97.82% | cell viability (HaCaT cells; 48 h, mean, n=3): 95.26% | cell viability (HaCaT cells; 48 h, replicate 1): 95.75% | cell viability (HaCaT cells; 48 h, replicate 2): 95.82% | cell viability (HaCaT cells; 48 h, replicate 3): 94.21%

Z-Val-Ala-Asp-(OMe)-fluoromethyl ketone [Z-VAD-FMK]
DBG-mediated inhibition of viability with Z-VAD-FMK (HCC827 cells [7]; Z-VAD-FMK 12 µM, 3 h, DBG 48 h): significantly recovered | DBG-induced apoptosis with Z-VAD-FMK (HCC827 cells [7]; Z-VAD-FMK pretreatment, cell line not specified (NSCLC cells)): prevented the DBG-induced apoptosis | DBG-mediated inhibition of viability with Z-VAD-FMK (HCC827GR cells [8]): significantly recovered
